Results as given in the supplement of paper PMC4858399.
Counter-ions that a name gives are not always drawn.

Key:
[1] = tested on: Caenorhabditis elegans N2; test: lowest effective concentration for larval growth inhibition (size below effect threshold); higher = less potent; details: exposure time 48 h
Summary of the method: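 Worm size was taken as per-worm extinction on the Biosort, log-transformed and turned into well means. The larvae (C. elegans N2, L1 stage, 50 per 96-well) had spent 48 h at 20°C in K-medium with killed bacteria, 1% DMSO and 0.5, 1, 5, 10, 50, 100 or 200 µM chemical. The lowest effective concentration marks the first dose where the plate-adjusted mean size drops under a cutoff and remains under it at every higher dose; the cutoff is 5.665.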

[2] = tested on: Caenorhabditis elegans N2; test: mean nematode size ln(EXT) after 48 h, plate-adjusted (DMSO control set to 6) (ln(EXT), control-adjusted); higher = larger nematodes / less growth inhibition; details: exposure time 48 h
Summary of the method: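 Chemical at 0.5–200 µM was tested on synchronised C. elegans N2 L1 larvae grown for 48 h at 20°C in K-medium with killed OP50 and 1% DMSO. Per-worm Biosort extinction, cleared of debris by a growth model, was natural-logged and averaged per well to give mean size. Plates were normalised by subtracting the vehicle control mean and adding 6.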

Structure (SMILES)	lowest effective concentration [1]	mean nematode size ln(EXT) (ln) ([2]; 0.5 µM)	mean nematode size ln(EXT) (ln) ([2]; 1 µM)	mean nematode size ln(EXT) (ln) ([2]; 5 µM)	mean nematode size ln(EXT) (ln) ([2]; 10 µM)	mean nematode size ln(EXT) (ln) ([2]; 50 µM)	mean nematode size ln(EXT) (ln) ([2]; 100 µM)	mean nematode size ln(EXT) (ln) ([2]; 200 µM)
O=C(O)C(F)(F)C(F)(F)C(F)(F)C(F)(F)C(F)(F)F [Perfluorohexanoic acid]	> 200 µM	5.47	5.55	5.6	5.67	5.69	5.73	5.86
CCOC(=O)COc1cc(-c2nn(C)c(OC(F)F)c2Cl)c(F)cc1Cl [Pyraflufen-ethyl]	> 200 µM	5.75	5.74	5.74	5.85	5.98	6.02	5.88
C=CC(=O)NCNC(=O)C=C [N,N'-Methylenebis(acrylamide)]	> 200 µM	6.06	6.06	6.06	6.01	6	6.05	5.83
NC(N)=O [Urea]	> 200 µM	5.83	5.73	5.79	5.7	5.77	5.86	5.74
C/C(=N\C#N)N(C)Cc1ccc(Cl)nc1 [Acetamiprid]	> 200 µM	5.78	5.98	6.03	6.03	6.16	6.02	5.96
CN(C)c1ccccc1 [N,N-Dimethylaniline]	> 200 µM	5.97	6.02	6.03	6.01	6.08	6.02	5.73
O=[N+]([O-])c1ccc(Cl)cc1 [1-Chloro-4-nitrobenzene]	> 200 µM	5.94	5.94	5.97	5.87	6.01	6	5.75
CCOC(=O)c1ccccc1C(=O)OCC [Diethyl phthalate]	> 200 µM	5.92	5.85	5.82	5.76	5.94	5.81	5.79
O=C(Oc1ccccc1)c1cccc(C(=O)Oc2ccccc2)c1 [Diphenyl isophthalate]	> 200 µM	5.87	5.89	5.87	5.87	5.94	5.94	5.7
COCC(C)OCC(C)OCC(C)O (configuration not stated) [Tripropylene glycol monomethyl ether]	> 200 µM	5.71	6.01	5.88	5.89	5.91	5.9	5.72
OCCNCCO [Diethanolamine]	> 200 µM	6.04	6.05	6.04	6.02	6.1	6.07	5.79
CN/C(=N\[N+](=O)[O-])NCc1cnc(Cl)s1 [Clothianidin]	> 200 µM	5.89	5.99	5.78	6.1	6.05	6.02	5.96
CC(C)CCCCCCOC(=O)c1ccc(C(=O)OCCCCCCC(C)C)c(C(=O)OCCCCCCC(C)C)c1 [Triisononyl Trimellitate]	> 200 µM	5.94	5.89	5.94	5.86	5.81	5.73	5.68
O=[N+]([O-])C(CO)(CO)CO [Tris(hydroxymethyl)nitromethane]	> 200 µM	5.91	5.9	5.92	5.75	5.92	5.89	5.75
COC(=O)c1ccc(O)cc1 [Methylparaben]	> 200 µM	6.02	5.99	5.95	6.11	6.02	6.06	5.7
CC(=O)c1ccccc1 [Acetophenone]	> 200 µM	6	6.01	6.03	6.08	6.16	6.11	5.78
O=C(O)c1c(Cl)ccc2cc(Cl)cnc12 [Quinclorac]	> 200 µM	5.97	6.03	6.03	5.99	5.97	6.07	5.76
CC(C)(C)c1ccc(O)cc1 [4-tert-Butylphenol]	> 200 µM	5.86	5.91	5.92	5.94	5.91	5.81	5.71
CCCCCCCCC(=O)O [Nonanoic acid]	> 200 µM	5.86	5.94	5.94	5.91	5.89	5.93	5.83
Cc1ccc([N+](=O)[O-])cc1C [1,2-Dimethyl-4-nitrobenzene]	> 200 µM	5.84	5.96	5.89	5.8	5.86	5.8	5.81
O=C(O)C(Cl)(Cl)Cl [Trichloroacetic acid]	> 200 µM	5.84	5.85	5.86	5.91	5.89	5.91	5.67
OCCOCCO [Diethylene glycol]	> 200 µM	5.91	5.95	5.92	5.86	5.92	5.78	5.69
Cc1ncc([C@@H](CCCCCCc2ccc3c(n2)NCCC3)CC(=O)O)cn1	> 200 µM	5.81	5.79	5.84	5.84	5.8	5.87	5.86
O=C1O[C@H]([C@H](O)CO)C([O-])=C1O.[Na+] [Sodium erythorbate]	> 200 µM	5.96	5.89	5.94	5.98	6	5.9	5.68
C=CC(N)=O [Acrylamide]	200 µM	6	5.68	5.69	5.76	5.89	5.76	5.65
Cc1cc(C)cc(C)c1 [1,3,5-Trimethylbenzene]	> 200 µM	5.85	5.84	5.83	5.9	5.89	5.99	5.72
[As]#[In] [Indium arsenide]	> 200 µM	5.78	5.76	5.77	5.75	5.54	5.53	5.86

Structure (SMILES)	lowest effective concentration [1]	mean nematode size ln(EXT) (ln) ([2]; 0.5 µM)	mean nematode size ln(EXT) (ln) ([2]; 1 µM)	mean nematode size ln(EXT) (ln) ([2]; 5 µM)	mean nematode size ln(EXT) (ln) ([2]; 10 µM)	mean nematode size ln(EXT) (ln) ([2]; 50 µM)	mean nematode size ln(EXT) (ln) ([2]; 100 µM)	mean nematode size ln(EXT) (ln) ([2]; 200 µM)
CCCCc1ccccc1 [Butylbenzene]	> 200 µM	5.65	5.67	5.69	5.67	5.53	5.6	5.75
COc1cc(-c2nc(NC(=O)c3cc4cc(C)cc(C)c4n3CC(=O)O)sc2CCC2CCCCC2)c(OC)cc1Cl	> 200 µM	5.89	5.89	5.88	5.87	5.92	5.83	5.69
C[C@@H](Oc1ccc(CNC(=O)c2cccnc2Oc2ccc3c(c2)OCO3)c(F)c1)C(=O)O	> 200 µM	5.79	5.84	5.86	5.84	5.92	5.86	5.72
O=C(O)COc1ccc(Cl)cc1Cl [2,4-Dichlorophenoxyacetic acid (2,4-D)]	> 200 µM	5.91	5.88	5.96	5.97	5.83	6.02	5.89
NCC1(Cc2noc(=O)[nH]2)CCCCC1	> 200 µM	5.77	5.69	5.76	5.73	5.69	5.72	5.7
Cc1nc(N(C)C)nc(OC(=O)N(C)C)c1C [Pirimicarb]	> 200 µM	5.83	5.88	6.03	5.99	6.32	5.99	5.96
O=C(O)c1ccccc1 [Benzoic acid]	> 200 µM	5.63	5.77	5.73	5.77	5.72	5.73	6.04
O=S(=O)(O)c1ccc(N=Nc2c(O)ccc3cc(S(=O)(=O)O)ccc23)cc1 [FD&C Yellow no. 6]	> 200 µM	5.95	5.86	5.74	5.85	5.89	5.91	5.84
CN(Cc1cnc2nc(N)nc(N)c2n1)c1ccc(C(=O)N[C@@H](CCC(=O)O)C(=O)O)cc1 [Methotrexate]	> 200 µM	5.83	5.86	5.81	5.85	5.84	5.82	5.75
COc1cc(-c2ccc(N)c(OC)c2)ccc1N [3,3'-Dimethoxybenzidine)]	> 200 µM	6	6.08	6.05	6.07	6.06	6.03	5.74
O=C(O)Cc1ccccc1Nc1c(Cl)cccc1Cl [Diclofenac sodium salt]	> 200 µM	5.93	5.95	5.92	5.99	5.92	5.9	5.83
NC(=O)N1c2ccccc2C=Cc2ccccc21 [Carbamazepine]	> 200 µM	5.86	5.85	5.88	5.83	5.88	5.85	5.67
CCNc1nc(Cl)nc(NC(C)C)n1 [Atrazine]	> 200 µM	5.54	5.72	5.73	5.07	6.06	6.06	5.94
Cn1ccnc1S [Methimazole]	> 200 µM	5.77	5.89	5.88	5.83	5.91	5.9	5.95
O=C(O)CC(O)(CC(=O)O)C(=O)O [Citric acid]	> 200 µM	5.85	6.03	6.03	5.9	5.99	5.63	5.73
CC(Oc1cccc(Cl)c1)C(=O)O (configuration not stated) [Cloprop]	> 200 µM	5.97	5.98	6.03	6.09	6.01	5.99	5.69
NS(=O)(=O)c1cc2c(cc1Cl)NCNS2(=O)=O [Hydrochlorothiazide]	> 200 µM	5.86	5.85	5.85	5.83	5.76	5.46	5.83
Cc1ccc(O)cc1C [3,4-Dimethylphenol]	> 200 µM	5.87	5.86	5.92	5.91	5.95	5.86	5.86
Cc1ccc(N)c(N)c1 [3,4-Diaminotoluene]	> 200 µM	5.97	5.93	5.94	5.91	5.88	5.71	5.75
O=C1OC(=O)C2C3C=CC(C3)C12 (configuration not stated) [4,7-Methanoisobenzofuran-1,3-dione, 3A,4,7,7A-tetrahydro-]	> 200 µM	5.86	5.82	5.84	5.82	5.8	5.52	5.71
CC(Cl)(Cl)C(=O)O [Dalapon]	> 200 µM	5.78	6.06	6.05	6.04	5.95	5.93	5.79
O=P1(N(CCCl)CCCl)NCCCO1 (configuration not stated) [Cytoxan hydrate]	> 200 µM	5.87	5.9	5.89	5.8	5.92	5.9	5.93
CC(C)NCC(O)c1ccc(O)c(O)c1 (configuration not stated) [Isoprenaline hydrochloride]	> 200 µM	5.94	5.97	5.91	5.94	5.95	5.54	5.84
O=c1ccc(=O)[nH][nH]1 [Maleic hydrazide]	> 200 µM	6.04	5.94	5.94	5.96	5.96	5.9	6.03
CCC(C)OC(=O)N1CCCCC1CCO (configuration not stated) [Icaridin]	> 200 µM	5.45	5.77	5.76	6.03	5.43	5.79	5.97
C=CC(=C)CCC=C(C)C [Myrcene]	> 200 µM	5.79	5.75	5.76	5.75	5.73	5.71	5.71
Nc1ccc(C(=O)O)cc1 [4-Aminobenzoic acid]	> 200 µM	5.84	5.87	5.81	5.49	5.83	5.85	5.72
